Measured values from patent publication US20110152229A1, “BETULINIC ACID DERIVATIVES AS ANTI-HIV AGENTS” (Duke University, priority 2006, published 2011).
Where two headings read alike, the source gives them in different places.

Columns and labels:
HIV-1 NL4-3 = assay: Anti-HIV assay: HIV-1 NL4-3 replication in MT4 cells (p24 ELISA); assay type: cell-based
Excerpt: Anti-HIV assay: A previously known HIV-1 infectivity assay was used in the experiments (See Zhu, et al. Proc. Natl. Acad. Sci. U.S.A. 2001, 98, 15227). A 96-well microtiter plate was used to set up the HIV-1 NL4-3 replication assay. HIV-1 NL4-3 at a multiplicity of infection (MOI) of 0.01 was used to infect MT4 cells. Culture supernatants were collected on day 4 post infection for p24 assay using an ELISA kit from ZeptoMetrix Corporation (Buffalo, N.Y.). Cell fusion assay: TZM cells that express luciferase upon fusion with envelope-expressing COS cells were used as fusion partners. The fusion assays were performed by transfecting monkey kidney cells (COS) with the expression vector pSRHS that contains the HIV-1 NL4-3 envelope genes. Electroporation was performed to express the HIV-1 envelope on COS cells. Briefly, COS cells (10^6) in culture medium were incubated with 2 μg of the envelope expression vector on ice for 10 min. Electroporation was performed using a gene pulser (BioRad, Hercules, Calif.) with capacitance set at 950 μF and voltage at 150 V. The transfected COS cells were cultured for one day before mixing with TZM cells. TZM cells (10×10^4) were incubated with COS cells (10^4) in 96-well flat-bottomed plates (Costar) in 100 μl culture medium. Compounds to be tested at various concentrations in 10 μl of culture medium were incubated with the cell mixtures at 37° C. for 24 hours. A Promega luciferase assay kit was used to quantify luciferase activity in the fused cells using a Biotek luminometer. The drug concentration that reduced the control HIV-1 envelope-mediated fusion by 50% is defined as 50% effective concentration (EC50). HIV-1 maturation assay: MT4 cells (10^5 cells/mL) were infected with HIV-1 NL4-3 at a multiplicity of infection (MOI) of 0.01 infectious units/cells for three days. The culture medium was removed and the infected cells were resuspended at 5×10^5 cells/mL and treated with BA derivatives at various concentrations. The virions in the culture supernatant were collected one day after drug treatment. The viral particles were spun down and subjected to Western Blot analysis of p24 and p25 as previously described. (See Zhou, et al. J. Virol. 2004, 78, 922 and Zhou, et al., Retrovirology 2004, 1, 15.)
Table 1 illustrated the effect of compound 11, 16-20 and 18b against HIV-NL4-3 in MT4 cells.

MT4 cells = assay: Reduction of viable cells in a 4-day assay (MT4 cells); assay type: cell-based; conditions: Homo sapiens, read-out: IC50 (drug concentration that resulted in a 50% reduction of viable cells)
HIV-1 NL4-3 envelope = assay: Cell fusion assay (luciferase-based; TZM cells with envelope-expressing COS cells); conditions: FIG. 1; TZM/COS fusion partners, luciferase readout
Excerpt: (§1) Anti-HIV assay: A previously known HIV-1 infectivity assay was used in the experiments (See Zhu, et al. Proc. Natl. Acad. Sci. U.S.A. 2001, 98, 15227). A 96-well microtiter plate was used to set up the HIV-1 NL4-3 replication assay. HIV-1 NL4-3 at a multiplicity of infection (MOI) of 0.01 was used to infect MT4 cells. Culture supernatants were collected on day 4 post infection for p24 assay using an ELISA kit from ZeptoMetrix Corporation (Buffalo, N.Y.). Cell fusion assay: TZM cells that express luciferase upon fusion with envelope-expressing COS cells were used as fusion partners. The fusion assays were performed by transfecting monkey kidney cells (COS) with the expression vector pSRHS that contains the HIV-1 NL4-3 envelope genes. Electroporation was performed to express the HIV-1 envelope on COS cells. Briefly, COS cells (10^6) in culture medium were incubated with 2 μg of the envelope expression vector on ice for 10 min. Electroporation was performed using a gene pulser (BioRad, Hercules, Calif.) with capacitance set at 950 μF and voltage at 150 V. The transfected COS cells were cultured for one day before mixing with TZM cells. TZM cells (10×10^4) were incubated with COS cells (10^4) in 96-well flat-bottomed plates (Costar) in 100 μl culture medium. […] A Promega luciferase assay kit was used to quantify luciferase activity in the fused cells using a Biotek luminometer. […]

HIV-1 p25 processing = assay: HIV-1 maturation assay (Western blot of p24 and p25); assay type: cell-based; conditions: FIG. 2; p25 detected by Western blot
Excerpt: as §1

[1] = Human immunodeficiency virus 1, NL43, HIV-NL4-3 in MT4 cells, average of at least two experiments, read-out: EC50 (concentration that inhibits HIV-1 replication by 50%)
[2] = 96 h, cytotoxicity, 4-day assay, MT4 cells, average of at least two experiments
[3] = Human immunodeficiency virus 1, NL43, MT4, read-out: EC50 (concentration that inhibits HIV-1 replication by 50%)

SMILES: C=C(C)[C@@H]1CC[C@]2(C(=O)O)CC[C@]3(C)[C@H](CC[C@@H]4[C@@]5(C)CC[C@H](O)C(C)(C)[C@@H]5CC[C@]43C)[C@@H]12 [Betulinic acid]
- inhibition of NL4-3 replication (HIV-1 NL4-3; negative control, concentration not given): did not inhibit

SMILES: C=C(C)[C@@H]1CC[C@]2(C(=O)On3nnc4ccccc43)CC[C@]3(C)[C@H](CC[C@@H]4[C@@]5(C)CC[C@H](OC(=O)C(C)(C)CC(=O)O)C(C)(C)[C@@H]5CC[C@]43C)[C@@H]12 [Compound 11, O-[3β-O-(2′,2′-Dimethylsuccinyl)-lup-20(29)-en-28-oyl]-1-hydroxybenzotriazole]
- EC50 (HIV-1 NL4-3; [1]): 35 nM
- IC50 (MT4 cells; [2]): 2500 nM
- melting point: 151 to 154 °C

SMILES: C=C(C)[C@@H]1CC[C@]2(C(=O)NCCCCCNC(C)=O)CC[C@]3(C)[C@H](CC[C@@H]4[C@@]5(C)CC[C@H](OC(=O)CC(C)(C)C(=O)O)C(C)(C)[C@@H]5CC[C@]43C)[C@@H]12 [Compound 16, [[N-[3β-O-(3′,3′-dimethylsuccinyl)-lup-20(29)-en-28-oyl]-5-aminopentyl]-carbamoyl]methane]
- EC50 (HIV-1 NL4-3; [1]): 12 nM
- IC50 (MT4 cells; [2]): 9000 nM
- melting point: 137 °C (dec.)

SMILES: C=C(C)[C@@H]1CC[C@]2(C(=O)NCCCCCCNC(C)=O)CC[C@]3(C)[C@H](CC[C@@H]4[C@@]5(C)CC[C@H](OC(=O)CC(C)(C)C(=O)O)C(C)(C)[C@@H]5CC[C@]43C)[C@@H]12 [Compound 17, [[N-[3β-O-(3′,3′-Dimethylsuccinyl)-lup-20(29)-en-28-oyl]-6-aminohexyl]-carbamoyl]methane]
- EC50 (HIV-1 NL4-3; [1]): 7 nM
- IC50 (MT4 cells; [2]): 7500 nM
- melting point: 137 °C (dec.)

SMILES: C=C(C)[C@@H]1CC[C@]2(C(=O)NCCCCCCCNC(C)=O)CC[C@]3(C)[C@H](CC[C@@H]4[C@@]5(C)CC[C@H](OC(=O)CC(C)(C)C(=O)O)C(C)(C)[C@@H]5CC[C@]43C)[C@@H]12 [Compound 18, [[N-[3β-O-(3′,3′-Dimethylsuccinyl)-lup-20(29)-en-28-oyl]-7-aminoheptyl]-carbamoyl]methane]
- anti-fusion activity: HIV-1 envelope mediated membrane fusion (HIV-1 NL4-3 envelope): inhibits HIV-1 envelope mediated membrane fusion
- EC50 (HIV-1 NL4-3; [3]): 2.6 nM
- IC50 (MT4 cells; MT4, 96 h): 8000 nM
- melting point: 117 to 120 °C
- anti-maturation activity: HIV-1 p25 processing (HIV-1 p25 processing): interfere with HIV-1 p25 processing

SMILES: C=C(C)[C@@H]1CC[C@]2(C(=O)NCCCCCCCNC(C)=O)CC[C@]3(C)[C@H](CC[C@@H]4[C@@]5(C)CC[C@H](O)C(C)(C)[C@@H]5CC[C@]43C)[C@@H]12 [Compound 18b, [[N-[3β-Hydroxy-lup-20(29)-en-28-oyl]-7-aminoheptyl]-carbamoyl]methane]
- anti-fusion activity: HIV-1 envelope mediated membrane fusion (HIV-1 NL4-3 envelope): inhibits HIV-1 envelope mediated membrane fusion
- EC50 (HIV-1 NL4-3; [3]): 47 nM
- IC50 (MT4 cells; MT4, 96 h): > 10000 nM

SMILES: C=C(C)[C@@H]1CC[C@]2(C(=O)NCCCCCCCCNC(C)=O)CC[C@]3(C)[C@H](CC[C@@H]4[C@@]5(C)CC[C@H](OC(=O)CC(C)(C)C(=O)O)C(C)(C)[C@@H]5CC[C@]43C)[C@@H]12 [Compound 19, [[N-[3β-O-(3′,3′-Dimethylsuccinyl)-lup-20(29)-en-28-oyl]-8-aminooctyl]-carbamoyl]methane]
- EC50 (HIV-1 NL4-3; [1]): 3.6 nM
- IC50 (MT4 cells; [2]): 7000 nM
- melting point: 113 to 115 °C

SMILES: C=C(C)[C@@H]1CC[C@]2(C(=O)NCCCCCCCCCNC(C)=O)CC[C@]3(C)[C@H](CC[C@@H]4[C@@]5(C)CC[C@H](OC(=O)CC(C)(C)C(=O)O)C(C)(C)[C@@H]5CC[C@]43C)[C@@H]12 [Compound 20, [[N-[3β-O-(3′,3′-Dimethylsuccinyl)-lup-20(29)-en-28-oyl]-9-aminonoyl]-carbamoyl]methane]
- EC50 (HIV-1 NL4-3; [1]): 12 nM
- IC50 (MT4 cells; [2]): 7400 nM
- melting point: 120 to 122 °C
